# Measurements: doi:10.1101/2021.11.30.469594v1 (biorxiv, 2021)
# Where two headings read alike, the source gives them in different places.
# Biological target: PRPK/TPRKB complex (also PRPK/PRPKB; PRPK aka TP53RK) (Homo sapiens, UniProt Q96S44)
# Assay: ITC
# Assay type: binding
# PRPK/TPRKB complex (also PRPK/PRPKB; PRPK aka TP53RK), sequence (Q96S44 whole entry, other chains not shown): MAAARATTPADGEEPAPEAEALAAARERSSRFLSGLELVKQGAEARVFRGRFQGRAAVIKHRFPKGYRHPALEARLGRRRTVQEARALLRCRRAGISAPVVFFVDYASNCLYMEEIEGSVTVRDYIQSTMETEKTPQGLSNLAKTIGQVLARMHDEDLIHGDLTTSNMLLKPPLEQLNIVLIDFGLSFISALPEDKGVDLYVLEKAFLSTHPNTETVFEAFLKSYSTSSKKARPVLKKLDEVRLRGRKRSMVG
smiles,measurement,setting,value
"Nc1ccc2c(c1)C(=O)N(C1CCC(=O)NC1=O)C2=O (centres unmarked) [Compound2, 5-amino-2-(2,6-dioxopiperidin-3-yl)isoindoline-1,3-dione]",Kd,,6.1 ± 0.5 µM
"C[C@]1(N2C(=O)c3cccc(O)c3C2=O)CCC(=O)NC1=O [DB-B5, (S)-4-hydroxy-2-(3-methyl-2,6-dioxopiperidin-3-yl)isoindoline-1,3-dione]",Kd,"pH […] °C, […] DMSO",27 µM
"O=C1CCC(N2C(=O)c3cccc(O)c3C2=O)C(=O)N1 (centres unmarked) [TXM-01-027-1, 2-(2,6-dioxopiperidin-3-yl)-4-hydroxyisoindoline-1,3-dione]",Kd,,2.2 µM
"C[C@@]1(N2C(=O)c3cccc(O)c3C2=O)CCC(=O)NC1=O [DB-A5, (R)-4-hydroxy-2-(3-methyl-2,6-dioxopiperidin-3-yl)isoindoline-1,3-dione]",Kd,"pH […] °C, […] DMSO, crystal structure solved here, ATP site",1.8 ± 0.4 µM
"COc1cccc2c1C(=O)N([C@]1(C)CCC(=O)NC1=O)C2=O [DB-A5-OMe, (R)-4-methoxy-2-(3-methyl-2,6-dioxopiperidin-3-yl)isoindoline-1,3-dione]",Kd,,> 1000 µM
